These results are taken from patent US20210221866A1, “PROTEASE-RESISTANT LIPIDATED GLP-1 ANALOGS” (MEDIMMUNE LIMITED, priority 2015, published 2021).

Series [1] has as its target T1, recombinant Neprilysin (Homo sapiens, UniProt P08473).
T1 construct: purchased R&D Systems 1182-ZNC-010
Nature of the series: Proteolytic resistance to neprilysin (% remaining peptide, RP-HPLC AUC). The series is classed as in vitro ADME. The settings on record: t = 0 (baseline); 37° C., pH 8.3; enzyme:peptide ~1:33 for non-lipidated, ~1:2.5 for lipidated peptides.
Protocol: Ratio enzyme (units):peptide (moles) ˜1:33. […] Ratio enzyme (units):peptide (moles) ˜1:2.5.
15 μL aliquots (˜15 ng initial peptide) of the peptide-enzyme mixture were periodically withdrawn (t=0, 30 mins, 1 hr, 2 hr, 4 hr, 8 hr, 24 hr) and quenched immediately by addition to an equal volume (15 μL) of 5% TFA (v/v) in 1:1 water/acetonitrile to arrest proteolytic activity. 20 μL aliquots (˜10 ng initial peptide) were analyzed by LC/MS and/or analytical RP-HPLC as follows: LC/MS method: Agilent Polaris C8-A column (4.6×100 mm, 3 micron) eluted with a linear binary gradient of 10-90% MeCN (0.1% TFA v/v) in water (0.1% TFA v/v) over 30 mins at 1.5 mL min-1 at ambient temperature with detection by both UV absorption at 210 nm and ionization using a Waters 3100 mass detector (ESI+ mode). Peptide fragments deriving from enzymatic hydrolysis were identified by molecular weight, allowing location of the site of cleavage. Analytical RP-HPLC method: Agilent Polaris C8-A column (4.6×100 mm, 3 micron) eluted with a linear binary gradient of 10-90% MeCN (0.1% TFA v/v) in water (0.1% TFA v/v) over either 10 or 15 mins at 1.5 mL min^−1 at 40° C. with detection by UV absorption at 210 nm. Manual integration (AUC) allowed estimation of remaining intact peptide over the time course of the experiment.
25 μL aliquots (˜6 μg initial peptide) were analyzed by LC/MS and/or analytical RP-HPLC as follows: LC/MS method: Agilent Polaris C8-A column (4.6×100 mm, 3 micron) eluted with a linear binary gradient of 10-90% MeCN (0.1% TFA v/v) in water (0.1% TFA v/v) over 30 mins at 1.5 mL min^−1 at ambient temperature with detection by both UV absorption at 210 nm and ionization using a Waters 3100 mass detector (ESI^+ mode). Peptide fragments deriving from enzymatic hydrolysis were identified by molecular weight, allowing location of the site of cleavage. Analytical RP-HPLC method: Agilent Polaris C8-A column (4.6×100 mm, 3 micron) eluted with a linear binary gradient of 10-90% MeCN (0.1% TFA v/v) in water (0.1% TFA v/v) over either 10 or 15 mins at 1.5 mL min^−1 at 40° C. with detection by UV absorption at 210 nm. Manual integration (AUC) allowed estimation of remaining intact peptide over the time course of the experiment.

In series [2] the target is T2, porcine pancreatic pepsin (Sus scrofa, UniProt P00791).
T2 construct: purchased Sigma P7012
Put plainly: Proteolytic resistance to pepsin (% remaining intact peptide, RP-HPLC AUC). Format: in vitro ADME. The settings on record: t = 0; 37° C., pH 2.0. The procedure:
Pepsin: Lyophilized porcine pancreatic pepsin (Sigma: P7012) was reconstituted to afford a solution of 200 μg/mL (˜500 units/mL) in assay buffer (0.1 M HCl, pH 2.0) to give the enzyme stock solution. […] Ratio enzyme (units):peptide (moles) ˜1:6. […] Ratio enzyme (units):peptide (μmoles) ˜2:1.
Lyophilized porcine pancreatic pepsin (Sigma: P7012) was reconstituted to […] (˜500 units/mL) in assay buffer ([…], pH 2.0) to give the enzyme stock solution.

For series [3], the target named is porcine pancreatic trypsin (Sus scrofa, UniProt P00761). Nature of the series: Proteolytic resistance to trypsin (% remaining intact peptide, RP-HPLC AUC). Format: in vitro ADME. Particulars: t = 0; 37° C., pH 7.8.
Series [4] can be described thus: Proteolytic resistance to α-chymotrypsin (% remaining intact peptide, RP-HPLC AUC). The settings on record: recombinant α-chymotrypsin in assay buffer, pH 7.8.
Protocol: (§2) Ratio enzyme (units):peptide (μmoles) ˜1:33. […] Ratio enzyme (units):peptide (μmoles) ˜1:2.5.
(§3) 15 μL aliquots (˜15 μg initial peptide) of the peptide-enzyme mixture are periodically withdrawn (t=0, 30 mins, 1 hr, 2 hr, 4 hr, 8 hr, 24 hr) and quenched immediately by addition to an equal volume (15 μL) of 5% TFA (v/v) in 1:1 water/acetonitrile to arrest proteolytic activity. 20 μL aliquots (˜10 μg initial peptide) are analysed by LC/MS and/or analytical RP-HPLC as follows: LC/MS method: Agilent Polaris C8-A column (4.6×100 mm, 3 micron) elutes with a linear binary gradient of 10-90% MeCN (0.1% TFA v/v) in water (0.1% TFA v/v) over 30 mins at 1.5 mL min^−1 at ambient temperature with detection by both UV absorption at 210 nm and ionization using a Waters 3100 mass detector (ESI^+ mode). Peptide fragments deriving from enzymatic hydrolysis are identified by molecular weight, allowing location of the site of cleavage. Analytical RP-HPLC method: Agilent Polaris C8-A column (4.6×100 mm, 3 micron) elutes with a linear binary gradient of 10-90% MeCN (0.1% TFA v/v) in water (0.1% TFA v/v) over either 10 or 15 mins at 1.5 mL min^−1 at 40° C. with detection by UV absorption at 210 nm. Manual integration (AUC) allows estimation of remaining intact peptide over the time course of the experiment.
(§4) 25 μL aliquots (˜6 μg initial peptide) are analysed by LC/MS and/or analytical RP-HPLC as follows: LC/MS method: Agilent Polaris C8-A column (4.6×100 mm, 3 micron) elutes with a linear binary gradient of 10-90% MeCN (0.1% TFA v/v) in water (0.1% TFA v/v) over 30 mins at 1.5 mL min^−1 at ambient temperature with detection by both UV absorption at 210 nm and ionization using a Waters 3100 mass detector (ESI±mode). Peptide fragments deriving from enzymatic hydrolysis are identified by molecular weight, allowing location of the site of cleavage. Analytical RP-HPLC method: Agilent Polaris C8-A column (4.6×100 mm, 3 micron) elutes with a linear binary gradient of 10-90% MeCN (0.1% TFA v/v) in water (0.1% TFA v/v) over either 10 or 15 mins at 1.5 mL min^−1 at 40° C. with detection by UV absorption at 210 nm. Manual integration (AUC) allows estimation of remaining intact peptide over the time course of the experiment.
Series [5] relates to recombinant α-chymotrypsin. Described as above. Particulars: t = 0; 37° C., pH 7.8.
Protocol: as §2, §3, §4
A short description of series [6]: Proteolytic resistance to fasted-state simulated intestinal fluid (FASSIF/Pancreatin). The series is classed as in vitro ADME. Particulars: 37° C., read-out: Percentage remaining intact peptide (AUC by RP-HPLC) upon incubation with fasted-state simulated intestinal fluid (FASSIF/P). How it is done:
(§1) A fresh suspension of FASSIF/P (Fasted-State Simulated Intestinal Fluid+USP Pancreatin®) was prepared according to that described by Galia, Nicolaides, Hörter, Lobenberg, Reppas and Dressman: Pharm. Res. 15 (1998) 698-705. The resulting preparation is proteolytically equivalent to ˜375 units/mL (375 kU/L) and was used immediately without storage. Peptides for evaluation (1.0 mg, ˜250 nmoles) were initially dissolved in pre-warmed FASSIF without Pancreatin® (200 μL) to which was added pre-warmed fresh FASSIF/Pancreatin® (100 μL) to initiate potential digestion. Following momentary vortexing of the Eppendorf reaction tube the mixture was incubated at 37° C. in a thermostatic waterbath for the duration of the experiment. 25 μL aliquots of the co-incubated peptide-enzyme mixture were periodically withdrawn (t=0, 5 m, 10 m, 15 m, 30 m, 1 h, 2 h) and quenched immediately by addition to a solution of 10% TFA in 1:1 water/acetonitrile (75 μL) to arrest proteolytic activity.

Series [7] relates to FASSIF/P (Fasted-State Simulated Intestinal Fluid+USP Pancreatin®). Described as above. Format: in vitro ADME. Particulars: t = 0; 37° C. The procedure: as §1

The structures appear in SMILES notation. Numbered stars: 1 amine (or outer) side, 2 acyl side, 3 side chain; on linkers, the order of the positions; unused ones are H or OH. Square brackets hold non-standard residues; d marks the D form. Side chains are listed from the residue outwards. Peptide text beside a SMILES is read from it. * marks the point of attachment. γGlu = O=C(O)[C@H](CCC(=O)[*:2])N[*:1]; Palmitoyl = CCCCCCCCCCCCCCCC(=O)*; αMeF = C[C@](N)(Cc1ccccc1)C(=O)O; αMeK = C[C@](N)(CCCCN)C(=O)O; Lauroyl = CCCCCCCCCCCC(=O)*; αMeS = C[C@](N)(CO)C(=O)O; AEEA = NCCOCCOCC(=O)O; Aib = CC(C)(N)C(=O)O

T1 sequence (P08473 whole entry): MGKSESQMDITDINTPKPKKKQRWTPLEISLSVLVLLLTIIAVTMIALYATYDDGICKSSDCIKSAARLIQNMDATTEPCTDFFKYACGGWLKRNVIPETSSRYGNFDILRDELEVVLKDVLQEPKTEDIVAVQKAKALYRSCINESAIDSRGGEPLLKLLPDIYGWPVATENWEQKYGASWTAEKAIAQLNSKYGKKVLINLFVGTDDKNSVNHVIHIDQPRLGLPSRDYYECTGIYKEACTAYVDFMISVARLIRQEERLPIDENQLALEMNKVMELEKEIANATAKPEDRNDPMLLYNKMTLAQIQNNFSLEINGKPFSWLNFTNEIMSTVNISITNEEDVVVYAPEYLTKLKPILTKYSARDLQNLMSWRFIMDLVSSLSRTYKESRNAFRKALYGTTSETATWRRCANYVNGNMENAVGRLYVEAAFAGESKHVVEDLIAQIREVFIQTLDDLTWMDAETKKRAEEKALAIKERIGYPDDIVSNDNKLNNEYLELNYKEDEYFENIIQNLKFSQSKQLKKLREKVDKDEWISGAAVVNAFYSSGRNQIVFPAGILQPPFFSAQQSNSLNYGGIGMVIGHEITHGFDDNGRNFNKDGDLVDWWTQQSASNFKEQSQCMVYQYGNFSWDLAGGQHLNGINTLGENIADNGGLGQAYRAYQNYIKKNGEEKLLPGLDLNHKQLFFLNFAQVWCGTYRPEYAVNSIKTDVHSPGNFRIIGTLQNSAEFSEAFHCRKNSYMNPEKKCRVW
Chain of porcine pancreatic trypsin (P00761 9-231): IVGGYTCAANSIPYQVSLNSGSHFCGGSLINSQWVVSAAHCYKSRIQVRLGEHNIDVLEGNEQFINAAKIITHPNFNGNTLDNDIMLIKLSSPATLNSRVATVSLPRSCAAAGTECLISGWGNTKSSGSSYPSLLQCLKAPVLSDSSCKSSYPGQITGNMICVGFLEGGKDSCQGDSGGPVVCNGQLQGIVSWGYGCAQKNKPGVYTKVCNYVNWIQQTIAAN
T2 sequence (P00791 60-385): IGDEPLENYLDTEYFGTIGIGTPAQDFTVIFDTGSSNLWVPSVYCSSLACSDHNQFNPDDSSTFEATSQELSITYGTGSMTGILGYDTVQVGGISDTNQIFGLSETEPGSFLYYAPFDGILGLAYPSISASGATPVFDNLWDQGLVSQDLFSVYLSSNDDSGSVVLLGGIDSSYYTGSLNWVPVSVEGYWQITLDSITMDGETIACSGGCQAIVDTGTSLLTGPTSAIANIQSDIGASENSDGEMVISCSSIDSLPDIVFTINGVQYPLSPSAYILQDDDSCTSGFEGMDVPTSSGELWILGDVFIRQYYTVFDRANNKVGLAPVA

`CC[C@H](C)[C@H](NC(=O)[C@](C)(Cc1ccccc1)NC(=O)[C@H](CCC(=O)O)NC(=O)[C@](C)(CCCCN)NC(=O)[C@H](C)NC(=O)[C@H](C)NC(=O)[C@H](CCC(=O)O)NC(=O)CNC(=O)[C@H](CCC(=O)O)NC(=O)[C@H](CC(C)C)NC(=O)[C@](C)(Cc1ccccc1)NC(=O)[C@H](CO)NC(=O)[C@](C)(CO)NC(=O)[C@@H](NC(=O)[C@H](CC(=O)O)NC(=O)[C@H](CO)NC(=O)[C@@H](NC(=O)[C@](C)(Cc1ccccc1)NC(=O)[C@H](CO)NC(=O)CNC(=O)[C@H](CCC(=O)O)NC(=O)C(C)(C)NC(=O)[C@@H](N)Cc1c[nH]cn1)[C@@H](C)O)C(C)C)C(=O)N[C@@H](C)C(=O)N[C@@](C)(Cc1ccccc1)C(=O)N[C@H](C(=O)N[C@H](C(=O)N[C@@](C)(CCCCN)C(=O)NCC(=O)NCC(N)=O)C(C)C)C(C)C` [compound 17]: in series [1], the “Percentage remaining peptide (AUC at specified time-point by RP-HPLC) upon incubation with neprilysin, t = 0” value (shortened to “Percentage remaining peptide”) is 100%. Further, the “Percentage remaining intact peptide (AUC by RP-HPLC) upon incubation with pepsin” value in series [2] is on record as 100%. For the same compound, the “Percentage remaining intact peptide (AUC by RP-HPLC) upon incubation with trypsin” value in series [3] turned out to be 100%. Moreover, in series [4], the remaining at 0.5 h worked out at 91.6%, the remaining at 1 h stood at 87.2%, the remaining at 2 h amounted to 86.3% and the remaining at 4 h worked out at 86.6%. In series [4], the remaining at 8 h was found to be 87.7% and the remaining at 24 h turned out to be 82.1%. The “Percentage remaining intact peptide (AUC by RP-HPLC) upon incubation with α-chymotrypsin” value in series [5] came out at 100%.

On to `CC[C@H](C)[C@H](NC(=O)[C@H](Cc1ccccc1)NC(=O)[C@H](CCC(=O)O)NC(=O)[C@H](CCCCNC(=O)COCCOCCNC(=O)COCCOCCNC(=O)CC[C@H](NC(=O)CCCCCCCCCCCCCCCCC(=O)O)C(=O)O)NC(=O)[C@H](C)NC(=O)[C@H](C)NC(=O)[C@H](CCC(=O)O)NC(=O)CNC(=O)[C@H](CCC(=O)O)NC(=O)[C@H](CC(C)C)NC(=O)[C@](C)(Cc1ccccc1)NC(=O)[C@H](CO)NC(=O)[C@](C)(CO)NC(=O)[C@@H](NC(=O)[C@H](CC(=O)O)NC(=O)[C@H](CO)NC(=O)[C@@H](NC(=O)[C@](C)(Cc1ccccc1)NC(=O)[C@H](CO)NC(=O)CNC(=O)[C@H](CCC(=O)O)NC(=O)C(C)(C)NC(=O)[C@@H](N)Cc1c[nH]cn1)[C@@H](C)O)C(C)C)C(=O)N[C@@H](C)C(=O)N[C@@](C)(Cc1ccccc1)C(=O)N[C@H](C(=O)N[C@H](C(=O)N[C@@](C)(CCCCN)C(=O)NCC(=O)NCC(N)=O)C(C)C)C(C)C` [compound 48], for which the “Percentage remaining peptide” value in series [1] was found to be 100%. For the same compound, the “Percentage remaining intact peptide (AUC by RP-HPLC) upon incubation with pepsin” value in series [2] was 100%. The “Percentage remaining intact peptide (AUC by RP-HPLC) upon incubation with trypsin” value in series [3] is 100.0%. Also, in series [4], the remaining at 0.5 h was determined as 97.8%, the remaining at 1 h is 94.6%, the remaining at 2 h worked out at 90.9% and the remaining at 4 h was 88.8%. In addition, in series [4], the remaining at 8 h amounted to 89.4% and the remaining at 24 h stood at 86.4%. Moreover, the “Percentage remaining intact peptide (AUC by RP-HPLC) upon incubation with α-chymotrypsin” value in series [5] amounted to 100%.

`CCCCCCCCCCCC(=O)N[C@@H](CCC(=O)NCCOCCOCC(=O)NCCOCCOCC(=O)NCCCC[C@H](NC(=O)[C@H](C)NC(=O)[C@@H](NC(=O)[C@H](Cc1ccc(OC)cc1)NC(=O)[C@H](CCC(=O)O)NC(=O)[C@](C)(CCCCN)NC(=O)[C@H](C)NC(=O)[C@H](C)NC(=O)[C@H](CCC(=O)O)NC(=O)CNC(=O)[C@H](CCC(=O)O)NC(=O)[C@H](CC(C)C)NC(=O)[C@H](CCCCNC(=O)COCCOCCNC(=O)COCCOCCNC(=O)CC[C@H](NC(=O)CCCCCCCCCCC)C(=O)O)NC(=O)[C@H](CO)NC(=O)[C@](C)(CO)NC(=O)[C@@H](NC(=O)[C@H](CC(=O)O)NC(=O)[C@H](CO)NC(=O)[C@@H](NC(=O)[C@](C)(Cc1ccccc1)NC(=O)[C@H](CO)NC(=O)CNC(=O)[C@H](CCC(=O)O)NC(=O)C(C)(C)NC(=O)[C@@H](N)Cc1c[nH]cn1)[C@@H](C)O)C(C)C)[C@@H](C)CC)C(=O)N[C@H](C(=O)N[C@H](C(=O)N[C@@H](CCC(=O)O)C(=O)NCC(=O)NCC(N)=O)C(C)C)C(C)C)C(=O)O` [compound 406] (H-H[Aib]EGS[αMeF]TSDV[αMeS]SK([AEEA-AEEA-γGlu-Lauroyl])LEGEAA[αMeK]EY(Me)IAK([AEEA-AEEA-γGlu-Lauroyl])VVEGG-NH2; N-terminus assumed): the remaining at 5 min, […] in series [6] (t = 5 m) is 93.9%. The remaining at 10 min, […] in series [6] (t = 10 m) is 85.7%. Further, in series [6] (t = 15 m), the remaining at 0.25 h, […] is 75.9%. The remaining at 0.5 h, […] in series [6] (t = 30 m) is 56.1%. For the same compound, the remaining at 1 h, […] in series [6] (t = 1 h) was 33.2%. For the same compound, the remaining at 2 h, […] in series [6] (t = 2 h) was 7.7%. Besides, the “Percentage remaining intact peptide (AUC by RP-HPLC) upon incubation with fasted-state simulated intestinal fluid (FASSIF/P)” value in series [7] was 100%.

Turning to `CCCCCCCCCCCCCCCC(=O)NCCCC[C@H](NC(=O)CNC(=O)CNC(=O)[C@](C)(CCCCN)NC(=O)[C@@H](NC(=O)[C@@H](NC(=O)[C@](C)(Cc1ccccc1)NC(=O)[C@H](C)NC(=O)[C@@H](NC(=O)[C@](C)(Cc1ccccc1)NC(=O)[C@H](CCC(=O)O)NC(=O)[C@](C)(CCCCN)NC(=O)[C@H](C)NC(=O)[C@H](C)NC(=O)[C@H](CCC(N)=O)NC(=O)CNC(=O)[C@H](CCC(=O)O)NC(=O)[C@H](CC(C)C)NC(=O)[C@](C)(Cc1ccccc1)NC(=O)[C@H](CO)NC(=O)[C@H](CO)NC(=O)[C@@H](NC(=O)[C@H](CC(=O)O)NC(=O)[C@H](CO)NC(=O)[C@@H](NC(=O)[C@](C)(Cc1ccccc1)NC(=O)[C@H](CO)NC(=O)CNC(=O)[C@H](CCC(=O)O)NC(=O)C(C)(C)NC(=O)[C@@H](N)Cc1c[nH]cn1)[C@@H](C)O)C(C)C)[C@@H](C)CC)C(C)C)C(C)C)C(N)=O` [compound 489] (H-H[Aib]EGS[αMeF]TSDVSS[αMeF]LEGQAA[αMeK]E[αMeF]IA[αMeF]VV[αMeK]GGK(Palmitoyl)-NH2), the “Percentage remaining peptide” value in series [1] was 100%. Also, the “Percentage remaining intact peptide (AUC by RP-HPLC) upon incubation with pepsin” value in series [2] was 100%. Also, in series [3], the “Percentage remaining intact peptide (AUC by RP-HPLC) upon incubation with trypsin” value is given as 100%.
